Values quoted from earlier work, collected in patent publication US10570353B2, “Cleaning compositions” (Ascent IP Holdings, LLC, priority 2009, dated 2020).

Assays:
[1] = identified from data sources
[2] = trace constituents of Trilon M Liquid
[3] = published toxicity data
[4] = supplier's nominal lipase activity

| Molecule | skin sensitizer listing [1] | further results |
| --- | --- | --- |
| Cn1sccc1=O [2-Methyl-4-isothiazolin-3-one] | skin sensitizers |  |
| Cn1sc(Cl)cc1=O [5-Chloro-2-Methyl-4-isothiazolin-3-one] | skin sensitizers |  |
| C=O [formaldehyde] |  | carcinogenicity listing [2]: suspected carcinogens |
| OO [hydrogen peroxide] | skin sensitizers | mutagenicity [3]: potential risk for mutagenicity |
| [Na+].[OH-] [sodium hydroxide] | skin sensitizers |  |
| O=C([O-])CN(CC(=O)[O-])CC(=O)[O-].[Na+].[Na+].[Na+] [trisodium nitrilotriacetate] |  | carcinogenicity listing [2]: suspected carcinogens |
| cocamidopropyl betaine | skin sensitizers |  |
| LIPOLASE® 100L: lipase derived from Thermomyces lanuginosus, from Novo-Nordisk A/S, liquid solution (protein, UniProt O59952 23-291, looked up, liquid commercial formulation, lipase derived from Thermomyces lanuginosus, from Novo-Nordisk A/S, liquid solution) Lipase: EVSQDLFNQFNLFAQYSAAAYCGKNNDAPAGTNITCTGNACPEVEKADATFLYSFEDSGVGDVTGFLALDNTNKLIVLSFRGSRSIENWIGNLNFDLKEINDICSGCRGHDGFTSSWRSVADTLRQKVEDAVREHPDYRVVFTGHSLGGALATVAGADLRGNGYDIDVFSYGAPRVGNRAFAEFLTVQTGGTLYRITHTNDIVPRLPPREFGYSHSSPEYWIKSGTLVPVTRNDIVKIEGIDATGGNNQPNIPDIPAHLWYFGLIGTCL |  | nominal activity [4]: 100 kLU/g |
| LIPOLASE® 100T: lipase derived from Thermomyces lanuginosus, from Novo-Nordisk A/S, granular solid (protein, UniProt O59952 23-291, looked up, granular commercial formulation, lipase derived from Thermomyces lanuginosus, from Novo-Nordisk A/S, granular solid) Lipase: EVSQDLFNQFNLFAQYSAAAYCGKNNDAPAGTNITCTGNACPEVEKADATFLYSFEDSGVGDVTGFLALDNTNKLIVLSFRGSRSIENWIGNLNFDLKEINDICSGCRGHDGFTSSWRSVADTLRQKVEDAVREHPDYRVVFTGHSLGGALATVAGADLRGNGYDIDVFSYGAPRVGNRAFAEFLTVQTGGTLYRITHTNDIVPRLPPREFGYSHSSPEYWIKSGTLVPVTRNDIVKIEGIDATGGNNQPNIPDIPAHLWYFGLIGTCL |  | nominal activity [4]: 100 kLU/g |
